Test results published in patent publication US20070208003A1, “COMPOUNDS AND METHODS FOR TREATING DYSLIPIDEMIA” (priority 2004, published 2007).

Test system: transgenic mice that express both human CETP and human apolipoprotein A-1
Test: Assay of plasma lipids in vivo: elevation of HDL cholesterol
Conditions: single oral dose 30 mg/kg; at 8 hr; serum HDL cholesterol relative to control; transgenic mice expressing human CETP and human apolipoprotein A-1
Procedure: Assay of Plasma Lipids In Vivo.
Activity of compounds of this invention in vivo can be determined by the level of elevation of HDL cholesterol relative to control by a given amount of compound in a CETP-containing animal species. A strain of transgenic mice that express both human CETP and human apolipoprotein A-1 (Taconic, Germantown, N.Y.) is used to test compounds of this invention. Test compounds are administered once orally in selected aqueous or oil based vehicles. At various times after dosing, ranging from 4 h to 24 h, blood is obtained. Blood is allowed to clot and serum is obtained by centrifugation. HDL cholesterol levels in the serum is determined by HDL-C plus reagents (Roche/Hitachi, Indianapolis, Ind.) with a clinical chemistry analyzer (Roche/Hitachi, Indianapolis, Ind.). Additional serum lipids can be analyzed by enzymatic methods. Lipids in the VLDL, LDL and HDL fractions are analyzed by enzymatic methods after precipitation or size exclusion chromatography.

## Cc1nc2c(cc1C(F)(F)F)N(C(=O)OC(C)C)CCCC2N(Cc1cc(C(F)(F)F)cc(C(F)(F)F)c1)c1nnn(C)n1 (racemic) [Example 14]
  % HDL cholesterol increase: 91%
